# Assays:
# BaF3 [1] = test: Anti-proliferative activity against mouse BaF3 cells expressing wild-type EGFR incubated for 3 days by Cell Titer Glo 2.0 assay; format: functional; conditions: BaF3, 72 h, time 3 day
# BaF3 [2] = test: Anti-proliferative activity against mouse BaF3 cells expressing EGFR […]/T790M/C797S mutant incubated for 3 days by Cell Titer Glo 2.0 assay; format: functional; conditions: BaF3, 72 h, time 3 day
# BaF3 [3] = test: Antitumor activity against mouse BaF3 cells expressing EGFR […]/T790M/[…] mutant allografted in Balb/c nude mouse administered orally twice daily for 5 days consecutively; format: functional, cell-based; conditions: dose 12.5-25 mg/kg, route po, time 5.0 day
# [4] = In vivo inhibition of phosphorylation of EGFR […]/T790M/[…] mutant at Y1068 in mouse BaF3 cells allografted in Balb/c nude mouse at 12.5 to 100 mg/kg, po measured after 6 hrs by Western blot analysis relative to control; format: functional; conditions: dose 12.5-100 mg/kg
# [5] = Plasma protein binding in human; format: ADME, cell-free; conditions: read-out: PPB
# BaF3 [6] = test: Antitumor activity against mouse BaF3 cells expressing EGFR […]/T790M/[…] mutant allografted in Balb/c nude mouse at 12.5 mg/kg, po bid for 5 days consecutively relative to control; format: functional; conditions: BaF3, 120 h, time 5 day, read-out: TGI
# [7] = Plasma protein binding in mouse; format: ADME, cell-free; conditions: read-out: PPB
# [8] = Toxicity in Balb/c nude mouse allografted with mouse BaF3 cells expressing EGFR […]/T790M/[…] mutant assessed as body weight loss at 12.5 to 25 mg/kg, po bid for 5 days consecutively; format: organism-based; conditions: in vivo, 120 h, dose 12.5-25 mg/kg, time 5 day
# BaF3 [9] = test: Antitumor activity against mouse BaF3 cells expressing EGFR […]/T790M/[…] mutant allografted in Balb/c nude mouse at 25 mg/kg, po qd for 5 days consecutively relative to control; format: functional; conditions: BaF3, 120 h, time 5 day, read-out: TGI
# BaF3 [10] = test: Anti-proliferative activity against mouse BaF3 cells expressing EGFR L858R/T790M/C797S mutant incubated for 3 days by Cell Titer Glo 2.0 assay; format: functional; conditions: BaF3, 72 h, time 3 day
# [11] = Metabolic stability in mouse liver microsomes assessed as compound remaining; format: ADME, Microsome
# BaF3 [12] = test: Antitumor activity against mouse BaF3 cells expressing EGFR […]/T790M/[…] mutant allografted in Balb/c nude mouse at 25 mg/kg, po bid for 5 days consecutively relative to control; format: functional; conditions: BaF3, 120 h, time 5 day, read-out: TGI
# BaF3 [13] = test: Antitumor activity against mouse BaF3 cells expressing EGFR […]/T790M/[…] mutant allografted in Balb/c nude mouse at 100 mg/kg, po qd for 5 days consecutively relative to control; format: functional; conditions: BaF3, 120 h, time 5 day, read-out: TGI
# [14] = Apparent permeability in MDCK cells; format: ADME, cell-based, Canis lupus familiaris; conditions: dog
# [15] = Solubility of compound at pH 1.2; format: physicochemical; conditions: buffer
# [16] = Metabolic stability in human liver microsomes assessed as compound remaining; format: ADME, Microsome
# [17] = Toxicity in Balb/c nude mouse allografted with mouse BaF3 cells expressing EGFR […]/T790M/[…] mutant assessed as signs of toxicity at 12.5 to 25 mg/kg, po bid for 5 days consecutively; format: organism-based; conditions: in vivo, 120 h, dose 12.5-25 mg/kg, time 5 day
# [18] = Toxicity in Balb/c nude mouse allografted with mouse BaF3 cells expressing EGFR […]/T790M/[…] mutant assessed as signs of toxicity at 25 to 100 mg/kg, po qd for 5 days consecutively; format: organism-based; conditions: in vivo, 120 h, dose 25-100 mg/kg, time 5 day
# [19] = Toxicity in Balb/c nude mouse allografted with mouse BaF3 cells expressing EGFR […]/T790M/[…] mutant assessed as body weight loss at 25 to 100 mg/kg, po qd for 5 days consecutively; format: organism-based; conditions: in vivo, 120 h, dose 25-100 mg/kg, time 5 day
# BaF3 [20] = test: Antitumor activity against mouse BaF3 cells expressing EGFR […]/T790M/[…] mutant allografted in Balb/c nude mouse administered orally once daily for 5 days consecutively; format: functional, cell-based; conditions: dose 25-100 mg/kg, route po, time 5.0 day
# [21] = Lipophilicity, logD of compound; format: physicochemical; conditions: octanol/water
# [22] = Solubility of compound at pH 6.8; format: physicochemical; conditions: buffer
structure (smiles),measurement,setting,value
CC(C)Oc1cc(Nc2ccnc(-c3cnn(S(=O)(=O)C4CC4)c3)n2)ncc1-c1cnn(-c2ccncc2)c1,GI50,BaF3 [1],> 10000 nM
same,GI50,BaF3 [2],601 nM
CC(C)Oc1cc(Nc2ccnc(-c3cnn(S(=O)(=O)C4CC4)c3)n2)ncc1-c1cn([C@H]2C[C@H](C)N(C)C2)nc1F,GI50,BaF3 [1],856 nM
same,GI50,BaF3 [2],43 nM
CC(C)Oc1cc(Nc2ccnc(-c3cnn(S(=O)(=O)C4CC4)c3)n2)ncc1-c1cn(C2CCN(C)CC2)nc1OC(F)F,Activity,BaF3 [3],Dose-Dependent Effect
same,inhibition (INH),[4],100%
same,GI50,BaF3 [1],760 nM
same,fraction unbound,[5],< 0.002
same,inhibition in vivo at 12.5 mg/kg,BaF3 [6],88%
same,fraction unbound,[7],< 0.002
same,Activity,[8],Non-Toxic
same,inhibition in vivo at 25 mg/kg,BaF3 [9],111%
same,GI50,BaF3 [10],13 nM
same,Stability,[11],55%
same,inhibition in vivo at 25 mg/kg,BaF3 [12],119%
same,inhibition in vivo at 100 mg/kg,BaF3 [13],127%
same,Papp,[14],9 ×10⁻⁶ cm/s
same,solubility,[15],1200 µg/mL
same,Stability,[16],18%
same,Activity,[17],Non-Toxic
same,Activity,[18],Non-Toxic
same,Activity,[19],Non-Toxic
same,Activity,BaF3 [20],Dose-Dependent Effect
same,logD,[21],4.6
same,GI50,BaF3 [2],9.4 nM
CC(C)Oc1cc(Nc2ccnc(-c3cnn(S(=O)(=O)C4CC4)c3)n2)ncc1-c1cnn(C2CCOCC2)c1,GI50,BaF3 [1],353 nM
same,GI50,BaF3 [2],46 nM
CC(C)Oc1cc(Nc2ccnc(-c3cnn(S(=O)(=O)C4CC4)c3)n2)ncc1-c1cnn(C2CCN(C)CC2)c1,GI50,BaF3 [1],203 nM
same,GI50,BaF3 [2],9.6 nM
COc1nn(C2CCN(C)CC2)cc1-c1cnc(Nc2ccnc(-c3cnn(S(=O)(=O)C4CC4)c3)n2)cc1OC(C)C,GI50,BaF3 [1],565 nM
same,fraction unbound,[5],< 0.002
same,fraction unbound,[7],< 0.002
same,GI50,BaF3 [10],18 nM
same,Stability,[11],48%
same,Papp,[14],3.1 ×10⁻⁶ cm/s
same,solubility,[15],> 1100 µg/mL
same,Stability,[16],24%
same,solubility,[22],15 µg/mL
same,logD,[21],4.4
same,GI50,BaF3 [2],6.5 nM
CC(C)Oc1cc(Nc2ccnc(-c3cnn(S(=O)(=O)C4CC4)c3)n2)ncc1-c1cnn([C@H]2C[C@H](C)N(C)C2)c1,GI50,BaF3 [1],387 nM
same,GI50,BaF3 [2],26 nM
CC(C)Oc1cc(Nc2ccnc(-c3cnn(S(=O)(=O)C4CC4)c3)n2)ncc1-c1cnn([C@@H]2CCN(C)C2)c1,GI50,BaF3 [1],318 nM
same,GI50,BaF3 [2],21 nM
Cc1nn([C@H]2C[C@H](C)N(C)C2)cc1-c1cnc(Nc2ccnc(-c3cnn(S(=O)(=O)C4CC4)c3)n2)cc1OC(C)C,GI50,BaF3 [1],2290 nM
same,GI50,BaF3 [2],168 nM
CC(C)Oc1cc(Nc2ccnc(-c3cnn(S(=O)(=O)C4CC4)c3)n2)ncc1-c1cnn([C@H]2CCN(C)C2)c1,GI50,BaF3 [1],463 nM
same,GI50,BaF3 [2],19 nM
CC(C)Oc1cc(Nc2ccnc(-c3cnn(S(=O)(=O)C4CC4)c3)n2)ncc1-c1cnn(C)c1,GI50,BaF3 [1],879 nM
same,GI50,BaF3 [2],61 nM
COc1nn([C@H]2C[C@H](C)N(C)C2)cc1-c1cnc(Nc2ccnc(-c3cnn(S(=O)(=O)C4CC4)c3)n2)cc1OC(C)C,GI50,BaF3 [1],574 nM
same,fraction unbound,[5],< 0.002
same,fraction unbound,[7],< 0.002
same,GI50,BaF3 [10],23 nM
same,Stability,[11],20%
same,Papp,[14],5.2 ×10⁻⁶ cm/s
same,solubility,[15],> 1100 µg/mL
same,Stability,[16],1%
same,logD,[21],5.4
same,GI50,BaF3 [2],12 nM

# From ChEMBL document CHEMBL6127025, “Discovery of a potent, selective, and orally available EGFR C797S mutant inhibitor (DS06652923) with in vivo antitumor activity” (Bioorg Med Chem, 2024)
